Source: patent US20100120708A1, “Combination therapy comprising ZD6474 and gemcitabine for anti-cancer therapy” (priority 2002, published 2010)
Several values for one entry are separate records, joined by “and”; a condition that tells them apart may be missing. Identical values can stand only once. Counter-ions that a name gives are not always drawn.

Tested on: L 3.6 μl human pancreatic cancer cells
Test: Effects of ZD6474 and gemcitabine therapy on primary pancreatic tumour growth and metastases growing orthotopically in nude mice
Format: in vivo
Settings: sacrificed day 32, ZD6474 50 mg/kg oral daily, gemcitabine 100 mg/kg i.p. twice weekly; for Incidence Pancreas (incidence of pancreatic tumours): orthotopic injection into pancreas, treatment from 8 days post-tumour injection; for Incidence Pancreas (incidence of pancreatic tumours) / LN Met (incidence of lymph node metastases) / Liver Met (incidence of liver metastases) / Peritoneal Carcinosis (incidence): animals affected/animals in group; for LN Met (incidence of lymph node metastases) / Liver Met (incidence of liver metastases) / Peritoneal Carcinosis (incidence): orthotopic; for Tumour Weight Average +/− std dev: primary pancreatic tumour weight, control 1231 mg; for Body Weight Average +/− std dev: control 21.4 g
Description: Model to Investigate Effects of ZD6474 and Gemcitabine Therapy on Primary Pancreatic Tumour Growth and Metastases Growing Orthotopically in Nude Mice
Nude mice (n=10 per group) were injected with 1×10^6 […] human pancreatic cancer cells into the pancreas. The mice received one of the following treatment regimes 8 days post-tumour injection:
Group 1—control group received saline by daily oral application; Group 2—a single daily dose of ZD6474 (50 mg/kg oral gavage); Group 3—gemcitabine twice weekly (on days 2 and 5 of each treatment week) (100 mg/kg by intraperitoneal injection (i.p.)); Group 4—a single daily dose of ZD6474 (50 mg/kg oral gavage) and twice weekly gemcitabine (on days 2 and 5 of each treatment week) (GEM: 100 mg/kg i.p.).
The animals were sacrificed 32 days after tumour cell injection.
The incidence of pancreatic tumours, liver metastases, lymph node metastases and peritoneal carcinosis was evaluated. The primary pancreatic tumour weight was measured. All macroscopically enlarged lymph nodes and liver nodules were confirmed by histopathology (H&E staining).

| SMILES | Incidence Pancreas (incidence of pancreatic tumours) | LN Met (incidence of lymph node metastases) | Liver Met (incidence of liver metastases) | Peritoneal Carcinosis (incidence) | Tumour Weight Average +/− std dev | Tumour Weight Average +/− std dev (listed as gemcitabine) | Body Weight Average +/− std dev |
| --- | --- | --- | --- | --- | --- | --- | --- |
| Nc1ccn([C@@H]2O[C@H](CO)[C@@H](O)C2(F)F)c(=O)n1 [Gemcitabine, 2′-deoxy-2′,2′-difluorocytidine monohydrochloride (β-isomer)] | 9/9 | 9/9 | 4/9 | 3/9 | 836 ± 291 mg | 836 mg | 21.7 ± 2.1 g |
| COc1cc2c(Nc3ccc(Br)cc3F)ncnc2cc1OCC1CCN(C)CC1 [ZD6474, 4-(4-bromo-2-fluoroanilino)-6-methoxy-7-(1-methylpiperidin-4-ylmethoxy)quinazoline] | 10/10 | 3/10 | 1/10 | 1/10 | 541 mg and 541 ± 201 mg |  | 19.2 ± 2.9 g |
